# What was measured:
# Format in all cases: functional, cell-based
# Huh-7 [1] = experiment: Cytotoxicity against human HuH7 cells assessed as reduction in cell growth after 48 hrs by MTT assay
# HepG2 [2] = experiment: Cytotoxicity against human HepG2 cells assessed as reduction in cell growth after 48 hrs by MTT assay
# Huh-7 [3] = experiment: Cytotoxicity against human HuH7 cells assessed as reduction in cell growth after 48 hrs by MTS assay; settings: Huh-7, 48 h
# HepG2 [4] = experiment: Cytotoxicity against human HepG2 cells assessed as reduction in cell growth after 48 hrs by MTS assay; settings: HepG2, 48 h
# [5] = Homo sapiens, Huh-7, 48 h, read-out: IC50
# [6] = Homo sapiens, HepG2, 48 h, read-out: IC50
SMILES,IC50 (Huh-7 [1]; [5]) [µM],IC50 (HepG2 [2]; [6]) [µM],IC50 (Huh-7 [1]; huh-7),IC50 (HepG2 [2]; hepg2),also measured
O=C1C=C[C@H]2CO[C@@H]1O2,12.9,39.4,–,–,–
CCCCCCS[C@H]1CC(=O)[C@@H]2OC[C@H]1O2,–,–,Not Active,Not Active,–
Cc1ccc(S[C@H]2CC(=O)[C@@H]3OC[C@H]2O3)cc1,12.8,27.5,–,–,–
O=C1C[C@H](n2c(=O)oc3ccccc32)[C@H]2CO[C@@H]1O2,8.79,22.2,–,–,–
O=C1C(Br)=C[C@H]2CO[C@@H]1O2,4.68,14,–,–,–
CCCCS[C@H]1CC(=O)[C@@H]2OC[C@H]1O2,–,–,Not Active,Not Active,–
Cc1ccc(S[C@H]2CC(O)[C@@H]3OC[C@H]2O3)cc1 (some centres undefined),–,–,Not Active,Not Active,–
CCCCS[C@H]1CC(O)[C@@H]2OC[C@H]1O2 (some centres undefined),–,–,Not Active,Not Active,–
O=C1C[C@H](Sc2ccccc2)[C@H]2CO[C@@H]1O2,11,17,–,–,–
COc1cccc2c1C(=O)c1c(O)c3c(c(O)c1C2=O)C[C@@](O)(C(=O)CO)C[C@@H]3O[C@H]1C[C@H](N)[C@H](O)[C@H](C)O1 [DOXORUBICIN],0.24,0.68,–,–,–
O=c1[nH]cc(F)c(=O)[nH]1 [FLUOROURACIL],390,205,–,–,–
CNC(=O)c1cc(Oc2ccc(NC(=O)Nc3ccc(Cl)c(C(F)(F)F)c3)cc2)ccn1 [SORAFENIB],–,–,–,–,IC50 (Huh-7 [3]): 11.3 µM; IC50 (HepG2 [4]): 12 µM
